pIC50: −log10 of the molar value.
Assays:
GPIIb/IIIa = biological target: T1, GPIIb/IIIa (Homo sapiens, UniProt P05106+P08514); test: Inhibition of fibrinogen binding to GPIIb/IIIa; conditions: purified GPIIb/IIIa from HEL cells, biotinylated human fibrinogen 1 nM
T1 construct: Purification of GPIIb/IIIa from HEL Cells; endogenous in cells; host or cells: HEL cells (HEL 92.1.7; ATCC TIB180), human erythroleukemia; GPIIb/IIIa solubilized in Triton X-100, purified and adsorbed on microtiter plates
Method: (1) Cultibation of Cells Derived from Human Erythroleukemia (Hereinafter Referred to as HEL Cells)
HEL cells (HEL 92. 1. 7; ATCC No. TIB180) were purchased from ATCC (Rockville, Md., U.S.A.). The cells were grown in RPMI medium containing 40 mM N-2-hydroxyethylpiperazin-N'-2-ethanesulfonic acid (hereinafter referred to as HEPES) (pH 7.0), 100 μg/ml of Kanamycin and 10% FCS (GIBCO Laboratories, Grand Island, N.Y., U.S.A.). Cultivation was conducted at 37° C in the presence of 5% CO2.
(2) Purification of GPIIb/IIIa from HEL Cells
Purification of GPIIb/IIIa was performed using the following modification of the method of L. A. Fitzgerald et al. [J. Biol. Chem., 262, 3936 (1987)]. The purification was conducted at room temperature unless specifically mentioned. From 7 L of the culture broth on 7th day of the cultibation (floating cells), the cells were collected by centrifugation (1,000×g, 10 minutes, 4° C.), which were washed with 20 mM Tris-HCl(pH 7.5) containing 1 mM EDTA and 150 mM NaCl. The cells were suspended in 80 ml of a solubilized buffer [20 mM Tris-HCl, 150 mM NaCl, 1% Triton X-100, 1 mM MgCl2, 1 mM CaCl2, 0.1 mM (p-amidinophenyl)methanesulfonyl fluoride (hereinafter referred to as APMSF), 10 nM leupeptin, 0.02% NaN3, pH 7.4)].
The cell suspension was gently mixed for 30 minutes at 4° C. to solubilize GPIIb/IIIa. The suspension was subjected to centrigugation (100,000×g, one hour) at 4° C. to remove cell debris to obtain a cell-extraction solution (60 ml). […] The fraction which passed through the column was charged on the ConA-Sepharose column (Pharmacia LKB, .phi. 1.0×15 cm, 20 ml/hr) to allow GPIIb/IIIa to be adsorbed thereon, then GPIIb/IIIa was eluted with column buffer solution containing 0.5 M methyl α-D-mannopyranoside. The eluate thus obtained was allowed to pass through the DEAE-Toyopearl 650 M column (Tosoh, .phi. 1.6×10.5 cm, 20 ml/hr) equilibrated with the same column buffer to remove contaminating proteins.
(3) Biotinylation of Human Fibrinogen
Biotinylation of human fibrinogen was performed by the following procedure [I. F. Charo et al., J. Biol. Chem., 266, 1415 (1991)]. Human fibrinogen (Kabi Vitrum AB, Stockholm, Sweden) was dissolved in PBS so as to make its concentration 5 mg/ml. The solution was dialyzed overnight at 4° C. against 1 L of 0.1 M NaHCO3 -0.1 M NaCl (pH 8.2). Insolubles were then removed by centrifugation (100,000×g, 30 minutes), and the solution was diluted with the same buffer to the protein concentration of 1 mg/ml. To thus-diluted solution was added powdery sulfo-N-hydroxysuccinimidobiotin (Pierce Chemical Co., Rockford, Ill., U.S.A.) so as to make its final concentration 0.2 mg/ml and gently mixed to perform biotinylate fibrinogen. The resultant was subjected to dialysis against 50 mM Tris-HCl (pH 7.4) - 100 mM NaCl-0.05% NaN3. The dialysate was distributed and stored at 4° C.
(4) Inhibition Assay for Fibrinogen Binding to GPIIb/IIIa
This experiment was performed using a modification of the method described in the above-mentioned I. F. Charo et al. report. The purified GPIIb/IIIa was diluted with the buffer A (20 mM Tris-HCl, 150 mM NaCl, 1 mM CaCl2, 0.02% NaN3, pH 7.4) to a concentration of 1 μg/ml. The diluted solution was added to 96-well microtiter plates (MaxiSorp; Nunc, Denmark) at 100 μl per well, which were left standing at 4° C. overnight to allow GPIIb/IIIa to be adsorbed on the microplates. The plate was aspirated, and then 150 μl of the buffer B (35 mg/ml BSA, 50 mM Tris-HCl, 100 mM NaCl, 2 mM CaCl2, 0.02%, NaN3, pH 7.4) was added to the plate, and blocking was performed at 30° C. for 2 hours. The plate was washed twice with 250 μl each of the buffer C (1 mg/ml BSA, 50mM Tris-HCl, 100 mM NaCl, 2 mM CaCl2, pH 7.4).

[1] = system: human platelet aggregation; test: Inhibitory action on human platelet aggregation (ADP-stimulated PRP); type: cell-based; conditions: ADP final concentration 3 μM, in vitro, read-out: Inhibitory effect on platelet aggregation in vitro (IC50) man
Method: [II] Inhibitory action on human platelet aggregation
Human blood was collected in 3.8% sodium citrate (1 ml for 9 ml of blood) by venipuncture from healthy male volunteers. The blood was centrifuged at 1000 g for 3 to 5 seconds at room temperature to obtain platelet rich plasma (PRP). The PRP was further centrifuged at 1000 g for 10 minutes to obtain platelet poor plasma (PPP). The number of platelets was measured using an automatic blood cell counter (Sysmex E2500, Toaiyou-densi). The platelet density of PRP was adjusted to 300,000/μl with PPP. Platelet aggregation was measured using an 8-channel aggregometer (NBS HEMA TRACER VI Niko Bioscience Inc.). The PRP (250 μl) was preincubated at 37° C. for 2 minutes. and then incubated for 2 minutes. with 25 μl of physiological saline or various concentrations of test drugs followed by stimulation with ADP (final concentration: 3 μM). By comparing the maximum aggregation rates of the control and those of test drugs, the inhibitory rates were determined. The results are shown in [Table 1]-[Table 3].

[2] = system: guinea pig platelet aggregation; test: Inhibitory action on guinea pig platelet aggregation (ADP-stimulated PRP); type: cell-based; conditions: Cavia porcellus, ADP final concentration 1 μM, in vitro, read-out: Inhibitory effect on platelet aggregation in vitro (IC50) guinea pig
Method: TEST EXAMPLE 1 [I] Inhibitory action on guinea pig platelet aggregation
Blood was collected in 3.15% sodium citrate (1 ml for 9 ml of blood) by cardiac puncture from male guinea pig. The blood was centrifuged at 1000 g for 3 to 5 seconds at room temperature to obtain platelet rich plasma (PRP). The PRP was further centrifuged at 1000 g for 10 minutes to obtain platelet poor plasma (PPP). The number of platelets was measured using an automatic blood cell counter (Sysmex E2500, Toaiyou-densi). The platelet density of PRP was adjusted to 400,000/μl with PPP. Platelet aggregation was measured using an 8-channel aggregometer (NBS HEMA TRACER VI Niko Bioscience Inc.). The PRP (250 μl ) was preincubated at 37° C. for 2 minutes. and then incubated for 2 minutes. with 25 μl of physiological saline or various concentrations of test drugs followed by stimulation with ADP (final concentration: 1 μM). By comparing the maximum aggregation rates of the control and those of test drugs, the inhibitory rates were determined. The results are shown in [Table 1]-[Table 3].

T1 sequence (P08514 32-887 limits assumed): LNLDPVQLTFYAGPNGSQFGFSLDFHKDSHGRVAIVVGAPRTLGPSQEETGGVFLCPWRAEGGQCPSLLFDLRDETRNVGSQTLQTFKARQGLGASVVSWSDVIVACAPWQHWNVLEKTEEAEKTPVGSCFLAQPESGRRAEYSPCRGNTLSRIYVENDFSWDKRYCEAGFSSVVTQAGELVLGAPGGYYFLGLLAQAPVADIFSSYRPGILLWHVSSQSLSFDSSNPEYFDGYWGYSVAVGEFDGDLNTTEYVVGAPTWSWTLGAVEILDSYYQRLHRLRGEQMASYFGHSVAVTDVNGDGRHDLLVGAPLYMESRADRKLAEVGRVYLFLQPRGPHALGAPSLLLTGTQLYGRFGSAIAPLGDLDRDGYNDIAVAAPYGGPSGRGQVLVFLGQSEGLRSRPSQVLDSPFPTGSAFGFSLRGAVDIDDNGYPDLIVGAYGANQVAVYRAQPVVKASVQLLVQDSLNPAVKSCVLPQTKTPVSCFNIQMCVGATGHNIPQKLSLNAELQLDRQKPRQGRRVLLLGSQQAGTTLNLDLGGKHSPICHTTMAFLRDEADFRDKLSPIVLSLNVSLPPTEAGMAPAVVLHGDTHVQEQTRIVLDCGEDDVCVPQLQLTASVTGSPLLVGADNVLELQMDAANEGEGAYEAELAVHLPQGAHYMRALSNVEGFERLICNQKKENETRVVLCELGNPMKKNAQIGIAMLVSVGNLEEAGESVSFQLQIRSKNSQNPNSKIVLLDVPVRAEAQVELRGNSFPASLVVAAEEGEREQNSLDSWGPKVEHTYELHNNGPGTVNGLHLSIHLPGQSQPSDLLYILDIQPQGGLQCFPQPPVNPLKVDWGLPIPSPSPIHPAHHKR
T1 sequence (P08514 891-1039 limits assumed): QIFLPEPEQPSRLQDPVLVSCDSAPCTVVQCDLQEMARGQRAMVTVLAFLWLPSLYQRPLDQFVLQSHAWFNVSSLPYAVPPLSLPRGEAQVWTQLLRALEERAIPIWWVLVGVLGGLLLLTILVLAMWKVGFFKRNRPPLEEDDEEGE
T1 sequence (P05106 27-788): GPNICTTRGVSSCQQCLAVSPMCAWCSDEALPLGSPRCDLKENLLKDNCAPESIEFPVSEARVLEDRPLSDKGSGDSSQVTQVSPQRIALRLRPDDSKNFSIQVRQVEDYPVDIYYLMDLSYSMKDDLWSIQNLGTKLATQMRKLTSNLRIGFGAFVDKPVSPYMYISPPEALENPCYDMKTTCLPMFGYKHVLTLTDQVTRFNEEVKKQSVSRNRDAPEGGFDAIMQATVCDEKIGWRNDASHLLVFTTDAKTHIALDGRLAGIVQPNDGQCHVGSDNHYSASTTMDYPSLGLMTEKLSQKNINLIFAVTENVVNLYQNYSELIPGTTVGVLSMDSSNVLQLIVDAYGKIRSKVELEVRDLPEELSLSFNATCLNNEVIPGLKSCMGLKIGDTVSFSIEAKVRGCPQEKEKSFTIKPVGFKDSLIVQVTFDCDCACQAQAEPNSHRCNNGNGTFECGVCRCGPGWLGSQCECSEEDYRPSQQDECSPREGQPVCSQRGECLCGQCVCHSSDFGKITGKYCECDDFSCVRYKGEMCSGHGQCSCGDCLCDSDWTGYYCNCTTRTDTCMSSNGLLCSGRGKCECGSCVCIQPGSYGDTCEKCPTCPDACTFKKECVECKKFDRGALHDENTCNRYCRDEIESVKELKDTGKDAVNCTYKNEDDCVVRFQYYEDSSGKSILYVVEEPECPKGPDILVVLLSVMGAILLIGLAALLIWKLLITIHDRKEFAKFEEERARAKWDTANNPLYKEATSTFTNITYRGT

Compound | pIC50 (GPIIb/IIIa) | pIC50 [1] | pIC50 [2]
CN(C)CCc1ccc(C(=O)NCC(=O)N2CCN(CC(=O)O)C(=O)[C@@H]2CCC(=O)O)cc1 [compound 77] | 7.35 | 5.33 | 5.60
N=C(N)NC[C@H]1CC[C@H](C(=O)NCC(=O)N2CCN(CC(=O)O)C(=O)[C@@H]2CC(=O)O)CC1 [compound 5] | 7.70 | 5.96 | 5.42
NCCc1ccc(C(=O)NCC(=O)N2CCN(CC(=O)O)C(=O)C2)cc1 [compound 87] | 8.80 | 6.74 | 6.82
N=C(N)c1ccc(C(=O)NCC(=O)N2CCN([C@@H](Cc3ccccc3)C(=O)O)C(=O)[C@@H]2CC(=O)O)cc1 [compound 54] | 8.21 | 6.18 | 5.39
C[C@@H](C(=O)O)N1CCN(C(=O)CNC(=O)c2ccc(C(=N)N)cc2)[C@@H](CC(=O)O)C1=O [compound 69] | 7.72 | 5.80 | 5.82
N=C(N)c1ccc(CC(=O)NCC(=O)N2CCN(CC(=O)O)C(=O)[C@@H]2CC(=O)O)cc1 [compound 45] | 8.09 | 5.82 | 5.80
N=C(N)c1ccc(C(=O)NCC(=O)N2CCN(CC(=O)O)C(=O)[C@@H]2CCC(=O)O)cc1 [compound 66] | 9.70 | 7.28 | 7.18
NCCc1ccc(C(=O)NCC(=O)N2CCN(CC(=O)O)C(=O)[C@@H]2CC(=O)O)cc1 [compound 46] | 8.60 | 6.64 | 6.89
N=C(N)N1CCC(C(=O)NCC(=O)N2CCN(CC(=O)O)C(=O)[C@@H]2CC(=O)O)CC1 [compound 38] | 7.68 | 5.80 | 5.02
N=C(N)NC[C@H]1CC[C@H](C(=O)NCC(=O)N2CCN(CC(=O)O)C(=O)[C@@H]2CCC(=O)O)CC1 [compound 32] | 7.82 | 6.02 | 5.51
NCCc1ccc(C(=O)NCC(=O)N2CCN(CC(=O)O)C(=O)[C@@H]2CCC(N)=O)cc1 [compound 84] | 9.00 | 6.92 | 6.96
CN(CC(=O)N1CCN(CC(=O)O)C(=O)[C@@H]1CC(=O)O)C(=O)[C@H]1CC[C@H](CNC(=N)N)CC1 [compound 12] | 8.00 | 6.15 | 5.96
NCCc1ccc(C(=O)NCC(=O)N2CCN(CC(=O)O)C(=O)[C@@H]2CCC(=O)O)cc1 [compound 76] | 9.00 | 6.82 | 6.96
N=C(N)NC[C@H]1CC[C@H](C(=O)N[C@@H](Cc2ccccc2)C(=O)N2CCN(CC(=O)O)C(=O)C2)CC1 [compound 37] | 8.10 | 6.28 | 5.15
COC(=O)CC[C@H]1C(=O)N(CC(=O)O)CCN1C(=O)CNC(=O)c1ccc(CCN)cc1 [compound 80] | 9.05 | 6.96 | 6.92
N=C(N)c1ccc(C(=O)NCC(=O)N2CCN(CC(=O)O)C(=O)[C@@H]2CC(N)=O)cc1 [compound 71] | 9.04 | 7.13 | 6.96
